Consider one compound from US11834454B2, “Alkynylphenylbenzamide compounds and applications thereof” (SHENZHEN NEWDEL BIOTECH CO., LTD., priority 2021, dated 2023).

One series has as its target Kit (Homo sapiens, UniProt P10721). Put plainly: Kinase selectivity, Z'-LYTE.
Another series has as its target PDGFRA (Homo sapiens, UniProt P16234). Put plainly: Kinase selectivity, Z'-LYTE.
Series [1] can be described thus: Pharmacokinetic and oral bioavailability tests in SD rats. The class given is in vivo. Here is the method:
Pharmacokinetic and oral bioavailability tests were performed in SD rats. According to the drug's solubility, the drug was administered orally and intravenously as a single dose. Animal blood samples were collected at different time points (0, 0.5, 1, 2, 4, 6, 8, 24 hours), and added with heparin for anticoagulation, then centrifugated to obtain the supernatant. Blood samples were analyzed by HPLC-MS, and DAS2.1 was used for data analysis to detect half-life (T½), maximum blood concentration (Cmax), peak time (Tmax), area under the curve (AUC), and bioavailability (BA) and other pharmacokinetic data.

Setting [2] is: Sprague-Dawley (SD), rat, plasma, intravenous injection, 2.0 mg/kg.
The mark [3] stands for this setting: Sprague-Dawley (SD), rat, plasma, oral, 10.0 mg/kg.

Structures are written as SMILES.

Sequence of Kit (P10721 26-976, species assumed): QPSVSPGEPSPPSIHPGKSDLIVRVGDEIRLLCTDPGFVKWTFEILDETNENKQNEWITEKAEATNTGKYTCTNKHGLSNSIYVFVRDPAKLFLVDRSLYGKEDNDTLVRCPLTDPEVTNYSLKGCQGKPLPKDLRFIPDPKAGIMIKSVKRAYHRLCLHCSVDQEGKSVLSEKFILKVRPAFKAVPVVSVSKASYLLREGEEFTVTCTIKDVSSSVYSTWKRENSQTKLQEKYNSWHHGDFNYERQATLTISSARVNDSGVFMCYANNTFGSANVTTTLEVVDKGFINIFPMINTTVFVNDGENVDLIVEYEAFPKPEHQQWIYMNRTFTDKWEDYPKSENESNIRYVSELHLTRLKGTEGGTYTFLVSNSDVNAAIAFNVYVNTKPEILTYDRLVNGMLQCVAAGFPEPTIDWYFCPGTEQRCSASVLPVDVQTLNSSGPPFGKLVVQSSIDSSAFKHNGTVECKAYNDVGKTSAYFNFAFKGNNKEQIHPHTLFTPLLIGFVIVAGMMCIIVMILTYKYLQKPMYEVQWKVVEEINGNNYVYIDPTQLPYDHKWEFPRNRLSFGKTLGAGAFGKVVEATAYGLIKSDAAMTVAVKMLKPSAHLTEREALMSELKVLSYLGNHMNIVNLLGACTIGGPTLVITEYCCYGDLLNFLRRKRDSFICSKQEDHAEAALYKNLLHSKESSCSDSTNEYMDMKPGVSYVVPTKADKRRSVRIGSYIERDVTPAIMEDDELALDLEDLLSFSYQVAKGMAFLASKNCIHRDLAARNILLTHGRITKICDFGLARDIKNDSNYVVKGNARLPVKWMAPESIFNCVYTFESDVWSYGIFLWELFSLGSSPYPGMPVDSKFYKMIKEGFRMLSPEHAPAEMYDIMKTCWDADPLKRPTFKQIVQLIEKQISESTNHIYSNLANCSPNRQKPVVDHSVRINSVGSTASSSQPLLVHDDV
Sequence of PDGFRA (P16234 24-1089, species assumed): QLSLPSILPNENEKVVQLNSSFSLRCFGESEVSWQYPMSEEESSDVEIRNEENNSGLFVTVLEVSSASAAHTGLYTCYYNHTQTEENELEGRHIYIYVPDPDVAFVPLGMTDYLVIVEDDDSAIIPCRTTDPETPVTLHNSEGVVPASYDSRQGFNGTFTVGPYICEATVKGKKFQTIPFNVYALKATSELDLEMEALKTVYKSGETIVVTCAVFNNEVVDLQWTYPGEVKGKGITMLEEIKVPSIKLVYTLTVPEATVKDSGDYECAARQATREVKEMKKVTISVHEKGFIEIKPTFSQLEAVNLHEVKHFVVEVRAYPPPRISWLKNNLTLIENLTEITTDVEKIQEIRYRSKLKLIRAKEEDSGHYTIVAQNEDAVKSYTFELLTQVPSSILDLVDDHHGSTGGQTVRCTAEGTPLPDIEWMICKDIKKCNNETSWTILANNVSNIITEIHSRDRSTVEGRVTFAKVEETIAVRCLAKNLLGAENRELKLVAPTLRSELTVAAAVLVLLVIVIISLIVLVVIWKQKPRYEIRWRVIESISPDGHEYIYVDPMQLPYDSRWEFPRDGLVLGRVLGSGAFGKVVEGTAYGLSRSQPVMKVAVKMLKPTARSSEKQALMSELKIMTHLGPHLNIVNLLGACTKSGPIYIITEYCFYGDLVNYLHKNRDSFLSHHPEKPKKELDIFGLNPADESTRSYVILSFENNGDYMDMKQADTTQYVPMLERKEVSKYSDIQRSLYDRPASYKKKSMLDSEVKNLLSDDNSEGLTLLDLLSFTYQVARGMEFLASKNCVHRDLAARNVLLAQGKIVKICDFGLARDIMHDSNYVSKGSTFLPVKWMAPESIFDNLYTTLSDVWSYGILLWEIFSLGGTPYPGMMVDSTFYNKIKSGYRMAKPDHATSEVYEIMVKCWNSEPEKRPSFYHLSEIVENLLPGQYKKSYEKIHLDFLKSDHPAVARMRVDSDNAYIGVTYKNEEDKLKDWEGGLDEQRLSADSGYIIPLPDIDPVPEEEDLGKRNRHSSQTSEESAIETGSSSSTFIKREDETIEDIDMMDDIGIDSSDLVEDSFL
Method for Kit: (§1) Enzymatic reaction: In a 384-well plate, added 5 μL of enzyme-substrate system [50 mM 4-hydroxyethylpiperazineethanesulfonic acid (HEPES) pH 7.5, 0.01% BRIJ-35, 10 mM of magnesium chloride (MgCl2), 1 mM of ethylene glycol bis(2-aminoethyl ether)tetraacetic acid (EGTA), 2 μM of Tyr 01 peptide substrate], transferred 5 nL of compound (concentration gradient) using an Echo520 Ultra-Micro Liquid Pipetting System. […] Shaked and mixed, then centrifuged, and reacted at 30° C. in the dark for 1.5 hours.
Method for PDGFRA: as §1

Turning to `Cc1c(C#Cc2cnc3ccc(N4CCC(O)CC4)nn23)cccc1C(=O)Nc1cc(Cl)cc(C(F)(F)F)c1` [XS3-55, N-(3-CHLORO-5-(TRIFLUOROMETHYL)PHENYL)-3-((6-(4-HYDROXYPIPERIDIN-1-YL)IMIDAZO[1,2-B]PYRIDAZINE-3-YL)ETHYNYL)-2-METHYLBENZAMIDE], the IC50 – broadly, the midpoint of a concentration-inhibition curve – at Kit amounted to 1670 nM. Besides, the midpoint of inhibition on PDGFRA, the IC50, lay at 5.89 µM. Further, in series [1] (setting [2]), the AUC(0-inf) (usually total exposure, with the tail of the curve extrapolated) was 549 µg·h/mL; the AUC(0-t) (usually the area under the concentration-time curve up to a stated or last time point) came out at 358 µg·h/mL; the Cmax (commonly the highest concentration seen after dosing) stood at 46100 ng/mL; the Tmax (as a rule, the time at which the peak concentration occurs) was 0.08 h. For the same compound, the half-life (in general, the time needed for the level to fall by half in the phase considered) in series [1] (setting [2]) is 964 min. Also, the clearance in series [1] (Sprague-Dawley (SD), rat, plasma, intravenous injection, 2.0 mg/kg, read-out: Clearance rate (converted)) is 3.65 mL/h/kg. Besides, in series [1] (setting [3]), the AUC(0-inf) was 878 µg·h/mL, the area under the curve AUC(0-t) came to 561 µg·h/mL, the Cmax turned out to be 44100 ng/mL and the Tmax is 4 h. The compound also gave a half-life in series [1] (setting [3]) of 911 min. For the same compound, the BA in series [1] (oral 10.0 mg/kg vs intravenous 2.0 mg/kg) turned out to be 31.32%.
